Assay results: ChEMBL document CHEMBL2086313, “Structure-based design of novel potent protein kinase CK2 (CK2) inhibitors with phenyl-azole scaffolds” (J Med Chem, 2012)

Experiments:
MCF7 = assay: Antiproliferative activity against human MCF7 cells after 72 hrs by MTS assay; settings: MCF7, 72 h
A549 = assay: cells; settings: Homo sapiens, A549, 72 h
HCT-116 = assay: cells; settings: Homo sapiens, HCT-116, 72 h
[1] = target: T1, Casein kinase II subunit alpha (Homo sapiens, UniProt P68400); assay: Competitive inhibition of GST fused human CK2alpha expressed in Escherichia coli BL21 after 10 mins in presence of ATP
[2] = target: T2, Casein kinase II subunit alpha' (Homo sapiens, UniProt P19784); assay: Competitive inhibition of GST fused human CK2alpha' expressed in Escherichia coli BL21 after 10 mins in presence of ATP
[3] = target: T2, Casein kinase II subunit alpha'; assay: Inhibition of GST fused human CK2alpha' expressed in Escherichia coli BL21 at 0.3 uM
[4] = target: T1, Casein kinase II subunit alpha; assay: Inhibition of GST fused human CK2alpha expressed in Escherichia coli BL21 at 0.3 uM
[5] = target: Dual specificity tyrosine-phosphorylation-regulated kinase 1B (Homo sapiens) (UniProt Q9Y463); assay: Inhibition of DYRK1B at 0.3 uM
[6] = target: Receptor-type tyrosine-protein kinase FLT3 (Homo sapiens) (UniProt P36888); assay: Inhibition of FLT3 at 0.3 uM
[7] = target: Cyclin-dependent kinase 6 (Homo sapiens) (UniProt Q00534); assay: Inhibition of CDK6 at 3 uM
[8] = target: RAC-alpha serine/threonine-protein kinase (Homo sapiens) (UniProt P31749); assay: Inhibition of AKT1 at 3 uM

Row | SMILES | IC50 (MCF7) | IC50 (A549) | IC50 (HCT-116) | IC50 [1] | IC50 [2] | inhibition [3] | inhibition [4] | inhibition [5] | inhibition [6] | inhibition [7] | inhibition [8]
1 | COc1ccc(C(=O)Nc2nnc(-c3ccc(C(=O)O)cc3)s2)cc1 | > 30 µM | > 30 µM | > 30 µM |  |  |  |  |  |  |  | 
2 | COc1ccc(C(=O)Nc2cc(-c3ccc(C(=O)O)cc3)[nH]n2)cc1 | > 30 µM | > 30 µM | > 30 µM |  |  |  |  |  |  |  | 
3 | O=C(O)Cc1ccn(-c2cncc(-n3ncc4ccc(NC5CCCC5)cc43)n2)c1 | 75 µM | 36 µM | 24 µM |  |  |  |  |  |  |  | 
4 | COc1ccc(C(=O)Nc2ncc(-c3ccc(C(=O)O)cc3)s2)cc1 | 2.4 µM | 2.6 µM | 1.6 µM | 0.032 µM | 0.046 µM | > 100% | 84% | 82% | 76% | 32% | 0.8%
5 | O=C(O)c1ccc2c(c1)nc(Nc1cccc(Cl)c1)c1ccncc12 [SILMITASERTIB] | 6.5 µM | 8.2 µM | 5.2 µM |  |  |  |  |  |  |  | 
